Experimental findings from US20250344698A1, “A METHOD OF CONTROLLING WEEDS” (SYNGENTA CROP PROTECTION AG, priority 2022, published 2025) are described below.

The test system of the experiment is PPO inhibitor herbicide resistant Amaranthus tuberculatus homozygous for deletion of glycine at codon 210 in PPX2L. The experiment can be described thus: Postemergence glasshouse test, dead or alive assessment, codon 210 deletion population. The class given is in vivo. As to conditions: 14 days after application; for use rate at or beyond which no plants survived application: postemergence.

Consider `CCOC(=O)C1(C)CC(c2cc(-n3c(=O)cc(C(F)(F)F)n(C)c3=O)c(F)cc2Cl)=NO1` (stereo not drawn) [Compound 8, 3-(2-chloro-4-fluoro-5-(3-methyl-2,6-dioxo-4-trifluoromethyl-3,6-dihydropyrimidin-1(2H)-yl)phenyl)-5-methyl-4,5-dihydroisoxazole-5-carboxylic acid ethyl ester], for which the “use rate at or beyond which no plants survived application” value is given as no less than 64 g ai/ha^−1. Further, the “Average % Survival of 16 repetitions” value (2 g ai/ha^−1 postemergence) was 100%. In addition, for the setting “4 g ai/ha^−1 postemergence”, the “Average % Survival of 16 repetitions” value is recorded as 100%. Further, the “Average % Survival of 16 repetitions” value (8 g ai/ha^−1 postemergence) came to 75%. The “Average % Survival of 16 repetitions” value (16 g ai/ha^−1 postemergence) worked out at 12.5%. Moreover, the “Average % Survival of 16 repetitions” value (32 g ai/ha^−1 postemergence) is 12.5%. In addition, the “Average % Survival of 16 repetitions” value (64 g ai/ha^−1 postemergence) is recorded as 0%. The “Average % Survival of 16 repetitions” value (128 g ai/ha^−1 postemergence) is listed as 0%. In addition, the “Average % Survival of 16 repetitions” value (256 g ai/ha^−1 postemergence) stood at 0%.
In the case of `CS(=O)(=O)NC(=O)c1cc(Oc2ccc(C(F)(F)F)cc2Cl)ccc1[N+](=O)[O-]` [Fomesafen], the “use rate at or beyond which no plants survived application” value was no less than 210 g ai/ha^−1. The “Average % Survival of 16 repetitions” value (0.82 g ai/ha^−1 postemergence) stood at 100%. Also, the “Average % Survival of 16 repetitions” value (1.64 g ai/ha^−1 postemergence) turned out to be 100%. For the same compound, under “3.28 g ai/ha^−1 postemergence”, the “Average % Survival of 16 repetitions” value turned out to be 100%. Moreover, the “Average % Survival of 16 repetitions” value (6.56 g ai/ha^−1 postemergence) amounted to 100%. For the same compound, the “Average % Survival of 16 repetitions” value (13.13 g ai/ha^−1 postemergence) stood at 100%. Moreover, where the note is “26.25 g ai/ha^−1 postemergence”, the “Average % Survival of 16 repetitions” value turned out to be 100%. In addition, where the note is “52.5 g ai/ha^−1 postemergence”, the “Average % Survival of 16 repetitions” value is listed as 81.3%. For the setting “105 g ai/ha^−1 postemergence”, the “Average % Survival of 16 repetitions” value was 62.5%. For the setting “210 g ai/ha^−1 postemergence”, the “Average % Survival of 16 repetitions” value is 0%. Also, the “Average % Survival of 16 repetitions” value (420 g ai/ha^−1 postemergence) was determined as 0%. Further, the “Average % Survival of 16 repetitions” value (840 g ai/ha^−1 postemergence) is on record as 0%.
